Measurements: US8034791B2, “Activation of Egr-1 promoter by DNA damaging chemotherapeutics” (The University of Chicago, priority 2001, dated 2011)
Where a name gives a salt, the structure may show the parent alone.

Tests used:
[1] = test system: PC-3 cells; experiment: Preliminary in vitro TNF-α induction, PC-3 cells; format: cell-based, human; conditions: vector treated PC-3 cells (100 MOI), 24 hrs; cisplatin 250 μM, doxorubicin 3 μM, 5-FU 20 mM, paclitaxel 14 μM
Description: (§1) In vitro measurement of TNF-α protein. PC-3 and PROb cells were plated in 96-well plates, grown overnight, and infected with Ad.Egr.TNF at 100 multiplicities of infection, incubated for three hrs, and were then treated with cisplatin (250 μM), doxorubicin (3 μM), 5-FU (20 mM) or paclitaxel (14 μM). Supernatants were harvested 24 hrs later and human TNF-α production was quantified by ELISA. Experiments were performed in quintuplicate.

[2] = test system: PROb cells; experiment: Preliminary in vitro TNF-α induction, PROb cells; format: cell-based, rat; conditions: PROb cells treated with Ad.TNF (100 MOI), 24 hrs; cisplatin 250 μM, doxorubicin 3 μM, 5-FU 20 mM, paclitaxel 14 μM
Description: as §1

[3] = test system: PC-3 xenografts; format: in vivo, nude mice; conditions: IT vector 5×10^9 p.u. + IP agent vs vector and NS, cisplatin 9, cyclophosphamide 160, doxorubicin 15, 5-FU 100 mg/kg
Description: (§2) In vivo measurement of TNF-α protein. PC-3 (1×10^7 cells) or PROb cells (5×10^6) in 100 μl PBS were injected subcutaneously into the right hind limb of nude mice. Tumor-bearing mice received IT Ad.Egr.TNF (5×10^9 p.u. in 10 μl) with 250 μl of complete media with NS or a chemotherapeutic agent, including cisplatin (9 mg/kg), cyclophosphamide (160 mg/kg), doxorubicin (15 mg/kg), 5-fluorouracil (100 mg/kg) and gemcitabine (500 mg/kg). Each mouse IP injections were administered 20 hrs after transfection, and two consecutive IT and IP injections were given. Animals were euthanized, and xenografts were harvested 48 hrs after the second IP injection. Xenografts were snap-frozen in liquid nitrogen and homogenized in RIPA buffer (150 mM NaCl, 10 mM Tris at pH 7.5, 5 mM EDTA at pH 7.5, 100 mM PMSF, 1 μg/ml leupeptin and 2 μg/ml aprotinin). After three freeze-thaw lysis cycles, the homogenate was centrifuged for 10 minutes at 4° C. TNF-α levels in the supernatants were measured as described above.

[4] = test system: PROb xenografts; format: in vivo, nude mice; conditions: IT vector 5×10^9 p.u. + IP agent vs vector plus NS, cisplatin 9, cyclophosphamide 160, doxorubicin 15, 5-FU 100, gemcitabine 500 mg/kg
Description: as §2

[5] = test system: PC-3 cells; experiment: Chemo-sensitivity by MTS assay, PC-3 cells; format: cell-based, human; conditions: PC-3, Ad.Egr-TNF.11D and chemotherapy 24 hrs
Description: (§3) Chemo-sensitivity of PC-3 and PROb cells as determined by MTS assay. PC-3 and PROb cells were plated at a density of 10^5 cells/100 μl medium in 96-well tissue culture plates and incubated overnight. […] After incubation, 200 μl of complete media, with or without chemotherapeutic agents, was added. Chemotherapeutic agents used were at final concentrations of cisplatin at 46 and 460 μM, doxorubicin at 3 and 300 μM, 5-fluorouracil at 2 and 200 mM and paclitaxel at 1.4 and 140 μM. Media was removed 24 hrs later and each well was rinsed with 200 μl of complete media (CM) and aspirated. 100 μl of CM was then added with 20 μl of CellTiter 96® Aqueous One Solution Cell Proliferation Assay solution (Promega, Madison, Wis.), and the cells were allowed to incubate for 1 hr. Absorbance was measured at 490-650 nm.

[6] = test system: PROb cells; experiment: Chemo-sensitivity by MTS assay, PROb cells; format: cell-based, rat; conditions: Ad.Egr-TNF.11D and chemotherapy 24 hrs
Description: as §3

[7] = test system: PC-3 cells; experiment: Chemo-inducibility of Ad.Egr-TNF.11D in vitro, PC-3 cells; conditions: PC-3 cells, doses used in the chemo-induction experiments (3 μM)
Description: (§4) PC-3 and PROb cells were plated, infected with Ad.Egr.TNF, and incubated as discussed above. After incubation, 200 μl of CM, with or without chemotherapeutic agents, including cisplatin (250 μM), doxorubicin (3 μM), 5-fluorouracil (100 mM), gemcitabine (3 mM) and paclitaxel (14 μM) were added. Conditioned medium was harvested 24 hrs. later, and TNF-α concentration was measured (Quantikine Human TNF-α ELISA kit, R & D Systems, Minneapolis, Minn.).

[8] = test system: PROb cells; experiment: Chemo-inducibility of Ad.Egr-TNF.11D in vitro, PROb cells; format: cell-based, rat; conditions: vector-infected PROb cells, 24 hrs; cisplatin 250 μM, doxorubicin 3 μM, 5-FU 100 mM, gemcitabine 3 mM, paclitaxel 14 μM
Description: as §4

[9] = test system: PC-3 xenografts; format: in vivo, athymic nude mice; conditions: vector + IP agent days 1 and 2, cisplatin 9, cyclophosphamide 160, doxorubicin 15, 5-FU 100, gemcitabine 500 mg/kg
Description: (§5) Saline or chemotherapeutic agents administered IP on days 1 and 2, including 9 mg/kg cisplatin, 160 mg/kg cyclophosphamide, 15 mg/kg doxorubicin, 100 mg/kg 5-FU and 500 mg/kg gemcitabine. Animals were euthanized, and xenografts were harvested 24 hrs after the second IP injection. Xenografts were snap-frozen in liquid nitrogen and homogenized in RIPA buffer (150 mM NaCl, 10 mM Tris pH 7.5, 5 mM EDTA pH 7.5, 100 mM PMSF, 1 µg/ml leupeptin and 2 μg/ml aprotinin) using a Brinkman Polytron homogenizer (Kinematica AG, Lucerne, Switzerland). After three freeze-thaw lysis cycles, the homogenate was centrifuged at 7800×g in a Sorvall RC-5C SS34 rotor (Kendro Laboratory Products, Newtown, Conn.) for 10 min at 4° C. TNF-α levels in the supernatants were measured by ELISA as described above.

[10] = test system: PROb xenografts; conditions: PROb xenografts, vector + IP agent vs vector alone; cisplatin 9, cyclophosphamide 160, doxorubicin 15, 5-FU 100, gemcitabine 500 mg/kg
Description: as §5

[11] = test system: PC-3 xenografts; experiment: Xenograft regrowth study, PC-3; format: in vivo, athymic nude mice
Description: Xenograft regrowth studies. Treatment was initiated on day 0 at which time mice were assigned to one of 4 treatment groups: control, doxorubicin, Ad.Egr-TNF.11D, and combination of Ad.Egr-TNF.11D and doxorubicin. On days 0 and 3, mice received IT injection of 10 μl of either 5×10^9 p.u. Ad.Egr-TNF.11D, or 10 μl of viral formulation buffer. IP injections of doxorubicin or NS (2 mg/kg) were administered daily from days 0 through 8. Xenografts were measured twice weekly and tumor volume was calculated according to the formula (length×width×thickness)/2. Fractional tumor volumes (V/V0 where V0=volume on day 0) were calculated and plotted.

[12] = test system: PROb xenografts; experiment: Xenograft regrowth study, PROb; format: in vivo, athymic nude mice; conditions: day 27, among control, doxorubicin alone and vector alone
Description: Xenograft regrowth studies. […] On days 0 and 3, mice received IT injection of 10 μl of either 5×10^9 p.u. […] IP injections of doxorubicin or NS (2 mg/kg) were administered daily from days 0 through 8. Xenografts were measured twice weekly and tumor volume was calculated according to the formula (length×width×thickness)/2. Fractional tumor volumes (V/V0 where V0=volume on day 0) were calculated and plotted.

[13] = test system: PC-3 xenografts; experiment: Analysis of microvessel density (anti-CD31), PC-3 xenografts; format: in vivo, athymic nude mice; conditions: day 27, anti-CD31
Description: Two or three xenografts from each treatment group in the PC-3 regrowth study above were collected and fixed in 10% neutral buffered formalin, embedded in paraffin, cut in 5 μm slices, mounted, baked, cleared in xylene, and rehydrated in decreasing alcohol concentrations (100%-70%) and distilled water. Sections were microwaved in 10 mM citrate buffer at pH 6.0 for 18 min, washed and soaked in 1% hydrogen peroxide/methanol for 20 min prior to blocking with avidin-biotin (Vector Laboratories, Burlingame, Calif.) for 15 min. Slides were incubated with biotin (15 min), washed and blocked with serum-free DAKO protein (DAKO, Carpinteria, Calif.) for 10 min prior to incubation with a 1:50 dilution of goat anti-mouse CD31 antibody (Santa Cruz, Santa Cruz, Calif.) for 60 min at RT. CD-31 staining was visualized on tissue sections following incubation with DAKO biotinylated anti-goat secondary antibody for 30 min and DAB reagent (Vector) for 60 sec. Sections were counterstained with Gill 3 hematoxylin and dehydrated in ethanol (95%-100%) and xylene prior to mounting. All slides were read by an investigator blinded to the treatment groups. Positively stained vessels were counted in 5-10 high power fields (×400) per slide using light microscopy. Blood vessels were identified by endothelial cell staining and by endothelial cells surrounding intraluminal erythrocytes. […]

[14] = higher concentration: cisplatin 460 μM, doxorubicin 300 μM, 5-FU 200 mM, taxol 140 μM
[15] = lower concentration: cisplatin 46 μM, doxorubicin 3 μM, 5-FU 2 mM, taxol 1.4 μM

## COc1cccc2c1C(=O)c1c(O)c3c(c(O)c1C2=O)C[C@@](O)(C(=O)CO)C[C@@H]3O[C@H]1C[C@H](N)[C@H](O)[C@H](C)O1 [doxorubicin, doxorubicin hydrochloride]
[1]
  increased TNF levels: 14.5 fold
[2]
  increased TNF levels: 7.3 fold
[3]
  induced TNF-α: 3.1 fold
[4]
  increased TNF-α levels: 2.5 fold
[5]; [14]
  surviving fraction: 30%
[5]; [15]
  surviving fraction: 90%
[6]; [14]
  surviving fraction: 85%
[6]; [15]
  surviving fraction: 100%
[7]
  toxicity to cells: toxic at the doses used
[8]
  increase in TNF-α levels: 7.4 fold
[9]
  increase in TNF-α levels: 4.2 fold
[10]
  induction of TNF-α protein: 2.3 fold
[11]; PC-3 xenografts, day 23, doxorubicin 2 mg/kg IP daily
  tumor growth: 3 fold
[11]; xenograft regrowth studies in nude mice
  systemic toxicity, including weight loss and deaths: Systemic toxicity, including weight loss and deaths, was observed
[12]
  tumor growth delay: no difference in tumor growth delay
[13]
  number of vessels per high power field: 6.24±0.35
